How the values were obtained:
[1] = molecular target: T1, CRBN/DDB1 (Homo sapiens, UniProt Q96SW2); format: binding; conditions: HTRF, Cy5-labeled Thalidomide probe
T1 construct: purchased Wuxi RP210521GA
Protocol: The binding potency was determined using HTRF assay technology (Perkin Elmer). Compounds were serially diluted in DMSO and 0.2 μL volume was transferred to white 384-well plate.

[2] = molecular target: T2, ER (Homo sapiens, UniProt P03372); experiment: In-cell Western (ICW) ER degradation assay in MCF-7 cells; format: cell-based; conditions: 16 hrs; for Dmax: MCF7, MCF-7 cells, read-out: ER MCF7 ICW Dmax (%); for DC50: read-out: ER MCF7 ICW DC50
T2 construct: endogenous in cells; probably T47D or MCF-7
T2 sequence (P03372 1-595): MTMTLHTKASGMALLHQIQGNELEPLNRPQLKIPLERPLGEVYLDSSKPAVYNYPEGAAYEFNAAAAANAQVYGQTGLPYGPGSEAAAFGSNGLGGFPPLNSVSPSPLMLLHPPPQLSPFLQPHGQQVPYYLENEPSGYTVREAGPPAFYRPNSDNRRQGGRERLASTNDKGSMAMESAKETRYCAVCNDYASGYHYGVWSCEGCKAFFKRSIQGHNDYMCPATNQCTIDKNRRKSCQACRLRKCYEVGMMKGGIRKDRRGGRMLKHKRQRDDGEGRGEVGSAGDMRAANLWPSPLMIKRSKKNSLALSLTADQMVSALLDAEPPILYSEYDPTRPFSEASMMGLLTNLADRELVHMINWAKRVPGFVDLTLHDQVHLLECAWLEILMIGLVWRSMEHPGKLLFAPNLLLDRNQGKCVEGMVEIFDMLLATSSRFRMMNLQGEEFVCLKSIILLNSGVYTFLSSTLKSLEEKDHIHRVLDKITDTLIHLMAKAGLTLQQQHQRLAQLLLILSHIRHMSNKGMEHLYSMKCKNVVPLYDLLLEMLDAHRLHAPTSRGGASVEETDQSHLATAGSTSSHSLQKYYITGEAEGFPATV
Protocol: (§1) ERa degradative activity of compounds can be assessed in MCF-7 and T47D Cells. MCF-7 and T47D cell are seeded and are subsequently treated with the compounds at certain concentrations (e.g., 0.02 to 300 nM). DMSO can be used as vehicle control. Cells are fixed and are blocked with Intercept (PBS) Blocking Buffer (e.g., Li—COR, Odyssey Blocking Buffer), and are stained with ER (e.g., 1:500, Cell signaling) primary antibody for overnight at cold room. Secondary Antibody (e.g., IRDye 800CW Goat anti-Rabbit IgG) and CellTag 700 Stain are added in Intercept (PBS) Blocking Buffer. Finally, cell plate is placed in incubator to dry. Image and signal are captured on Odyssey® DLx Imaging System.
(§2) In-cell Western (ICW) assays in MCF-7 and T47D cell lines.
(§3) Procedures for ICW assays
(§4) In vitro Assay: MCF-7 and T47D ICW assay
(§5) Day 3: After 16 hrs of compounds treatment, cells were fixed by 4% PFA and permeabilized with elution buffer (0.1% Triton X-100 in 1% PBS Solution). Subsequently, cells were blocked with Intercept (PBS) Blocking Buffer (Li—COR, Odyssey Blocking Buffer), and were stained with ER (1:500, Cell signaling) primary antibody for overnight at cold room.
(§6) Day 4: Remove the buffer, add IRDye 800CW Goat anti-Rabbit IgG Secondary Antibody (1:2000) and CellTag 700 Stain (1:500) in Intercept (PBS) Blocking Buffer. Finally, cell plate is placed in incubator to dry. Image and signal were captured on Odyssey® DLx Imaging System.

[3] = molecular target: T2, ER; experiment: In-cell Western (ICW) ER degradation assay in T47D cells; format: cell-based; conditions: T47D cells, 16 hrs; for Dmax: T47D, read-out: ER T47D ICW Dmax (%)
Protocol: as §1, §2, §3, §4, §5, §6

T1 sequence (Q96SW2 whole entry): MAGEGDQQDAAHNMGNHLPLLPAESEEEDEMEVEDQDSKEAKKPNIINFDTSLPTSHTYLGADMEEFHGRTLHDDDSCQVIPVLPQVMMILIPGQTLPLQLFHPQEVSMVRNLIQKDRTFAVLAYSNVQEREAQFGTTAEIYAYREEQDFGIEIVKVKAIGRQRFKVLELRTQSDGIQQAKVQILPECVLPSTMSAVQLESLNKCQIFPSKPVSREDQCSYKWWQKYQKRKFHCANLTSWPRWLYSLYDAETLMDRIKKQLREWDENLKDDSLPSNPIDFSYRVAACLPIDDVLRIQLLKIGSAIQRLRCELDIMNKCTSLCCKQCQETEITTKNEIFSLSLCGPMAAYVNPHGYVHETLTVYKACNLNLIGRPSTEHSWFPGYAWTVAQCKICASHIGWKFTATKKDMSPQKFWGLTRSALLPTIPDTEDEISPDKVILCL
T1 sequence (Q16531 whole entry partner): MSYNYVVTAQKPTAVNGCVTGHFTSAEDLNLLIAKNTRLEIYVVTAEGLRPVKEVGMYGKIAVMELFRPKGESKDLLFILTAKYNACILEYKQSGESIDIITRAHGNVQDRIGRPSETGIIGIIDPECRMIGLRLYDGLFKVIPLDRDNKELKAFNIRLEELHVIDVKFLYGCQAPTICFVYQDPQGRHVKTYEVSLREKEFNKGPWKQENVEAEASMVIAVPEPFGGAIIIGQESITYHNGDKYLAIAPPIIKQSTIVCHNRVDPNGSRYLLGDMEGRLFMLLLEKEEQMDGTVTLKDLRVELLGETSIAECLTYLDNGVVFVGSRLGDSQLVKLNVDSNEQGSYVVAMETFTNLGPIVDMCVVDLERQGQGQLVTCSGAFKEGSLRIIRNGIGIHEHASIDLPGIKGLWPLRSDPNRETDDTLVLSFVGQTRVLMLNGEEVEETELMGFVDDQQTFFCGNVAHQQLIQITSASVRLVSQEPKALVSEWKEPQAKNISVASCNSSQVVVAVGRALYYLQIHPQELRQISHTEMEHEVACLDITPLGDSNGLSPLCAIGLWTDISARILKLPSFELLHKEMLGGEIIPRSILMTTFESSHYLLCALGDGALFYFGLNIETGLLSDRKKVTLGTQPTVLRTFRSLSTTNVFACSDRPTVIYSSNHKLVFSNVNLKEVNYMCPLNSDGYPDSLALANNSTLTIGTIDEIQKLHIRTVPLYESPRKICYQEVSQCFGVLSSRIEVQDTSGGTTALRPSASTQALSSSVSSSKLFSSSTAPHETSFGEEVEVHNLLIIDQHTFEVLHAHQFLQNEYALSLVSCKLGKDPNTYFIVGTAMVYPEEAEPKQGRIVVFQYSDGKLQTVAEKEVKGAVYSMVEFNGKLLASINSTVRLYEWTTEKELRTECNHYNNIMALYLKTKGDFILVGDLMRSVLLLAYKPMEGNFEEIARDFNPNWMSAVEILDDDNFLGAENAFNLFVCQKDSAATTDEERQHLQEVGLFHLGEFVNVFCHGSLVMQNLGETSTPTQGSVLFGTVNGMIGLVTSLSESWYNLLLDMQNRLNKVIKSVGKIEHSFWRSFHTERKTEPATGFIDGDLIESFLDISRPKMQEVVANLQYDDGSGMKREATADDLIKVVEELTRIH

Compound: C[C@@H]1Cc2c(ccc3[nH]ncc23)[C@@H](c2c(F)cc(N3CCC(CN4CCN5c6ccc7c(c6OC[C@@H]5C4)CN(C4CCC(=O)NC4=O)C7=O)CC3)cc2F)N1CC(F)F (stereo partly drawn) [Compound A2, 3-((S)-7-((1-(4-((6S,8R)-7-(2,2-difluoroethyl)-8-methyl-6,7,8,9-tetrahydro-3H-pyrazolo[4,3-f]isoquinolin-6-yl)-3,5-difluorophenyl)piperidin-4-yl)methyl)-1-oxo-1,3,5,5a,6,7,8,9-octahydro-2H-pyrazino[1′,2′:4,5][1,4]oxazino[2,3-e]isoindol-2-yl)piperidine-2,6-dione]
- IC50 [1]: 50 to 500 nM
- Dmax [2]: 50 to 75%
- DC50 ([2]; MCF-7 cells): < 1 nM
- DC50 [3]: < 1 nM
- Dmax [3]: 50 to 75%

Compound: C[C@@H]1Cc2c(ccc3[nH]ncc23)[C@@H](c2ccc(N3CCC4(CC3)CC(CN3CCN5c6cc7c(cc6OC[C@H]5C3)C(=O)N([C@@H]3CCC(=O)NC3=O)C7)C4)cn2)N1CC1(F)CC1 [Compound A14, (R)-3-((R)-3-((7-(6-((6S,8R)-7-((1-fluorocyclopropyl)methyl)-8-methyl-6,7,8,9-tetrahydro-3H-pyrazolo[4,3-f]isoquinolin-6-yl)pyridin-3-yl)-7-azaspiro[3.5]nonan-2-yl)methyl)-8-oxo-1,2,3,4,4a,5,8,10-octahydro-9H-pyrazino[1′,2′:4,5][1,4]oxazino[2,3-f]isoindol-9-yl)piperidine-2,6-dione]
- IC50 [1]: 50 to 500 nM
- Dmax [2]: 50 to 75%
- DC50 ([2]; MCF-7 cells): < 1 nM
- DC50 [3]: < 1 nM
- Dmax [3]: > 75%

Compound: C[C@H]1Cc2c(ccc3[nH]ncc23)[C@@H](c2ccc(N3CC4(CCC(CN5CCN6c7ccc8c(c7OC[C@@H]6C5)CN([C@@H]5CCC(=O)NC5=O)C8=O)CC4)C3)nc2)N1CC(F)(F)F (stereo in doubt) [Compound A18, (R)-3-((S)-7-((2-(5-((6S,8S)-8-methyl-7-(2,2,2-trifluoroethyl)-6,7,8,9-tetrahydro-3H-pyrazolo[4,3-f]isoquinolin-6-yl)pyridin-2-yl)-2-azaspiro[3.5]nonan-7-yl)methyl)-1-oxo-1,3,5,5a,6,7,8,9-octahydro-2H-pyrazino[1′,2′:4,5][1,4]oxazino[2,3-e]isoindol-2-yl)piperidine-2,6-dione]
- IC50 [1]: 50 to 500 nM
- Dmax [2]: 50 to 75%
- DC50 ([2]; MCF-7 cells): 1 to 10 nM
- DC50 [3]: 1 to 10 nM
- Dmax [3]: 50 to 75%

Compound: C[C@H]1Cc2c(ccc3[nH]ncc23)[C@H](c2ccc(N3CCC4(CC3)CC(CN3CCN5c6cc7c(cc6OC[C@@H]5C3)C(=O)N([C@@H]3CCC(=O)NC3=O)C7)C4)cn2)N1CC1(F)CC1 (stereo in doubt) [Compound A13, (R)-3-((S)-3-((7-(6-((6R,8S)-7-((1-fluorocyclopropyl)methyl)-8-methyl-6,7,8,9-tetrahydro-3H-pyrazolo[4,3-f]isoquinolin-6-yl)pyridin-3-yl)-7-azaspiro[3.5]nonan-2-yl)methyl)-8-oxo-1,2,3,4,4a,5,8,10-octahydro-9H-pyrazino[1′,2′:4,5][1,4]oxazino[2,3-f]isoindol-9-yl)piperidine-2,6-dione]
- IC50 [1]: < 50 nM
- Dmax [2]: 25 to 50%
- DC50 ([2]; MCF-7 cells): < 1 nM
- DC50 [3]: < 1 nM
- Dmax [3]: 50 to 75%

Compound: C[C@H]1Cc2c(ccc3[nH]ncc23)[C@@H](c2ccc(N3CCC(CN4CCN5c6cc7c(cc6OC[C@H]5C4)C(=O)N([C@@H]4CCC(=O)NC4=O)C7)CC3)nc2)N1CC(F)(F)F (stereo in doubt) [Compound A20, (R)-3-((R)-3-((1-(5-((6S,8S)-8-methyl-7-(2,2,2-trifluoroethyl)-6,7,8,9-tetrahydro-3H-pyrazolo[4,3-f]isoquinolin-6-yl)pyridin-2-yl)piperidin-4-yl)methyl)-8-oxo-1,2,3,4,4a,5,8,10-octahydro-9H-pyrazino[1′,2′:4,5][1,4]oxazino[2,3-f]isoindol-9-yl)piperidine-2,6-dione]
- IC50 [1]: < 50 nM
- Dmax [2]: 25 to 50%
- DC50 ([2]; MCF-7 cells): 10 to 100 nM
- DC50 [3]: 10 to 100 nM
- Dmax [3]: 50 to 75%

Compound: (S)-3-((R)-7-((1-(5-((6S,8R)-8-methyl-7- (2,2,2-trifluoroethyl)-6,7,8,9-tetrahydro-3H- pyrazolo[4,3-f]isoquinolin-6-yl)pyridin-2- yl)piperidin-4-yl)methyl)-1-oxo- 1,3,5,5a,6,7,8,9-octahydro-2H- pyrazino[1′,2′:4,5][1,4]oxazino[2,3-c]isoindol- 2-yl)piperidine-2,6-dione [Compound A23]
- IC50 [1]: 500 to 5000 nM
- ER MCF7 ICW Dmax (%) ([2]; MCF-7 cells): B (“B”: >50% and <75%)
- DC50 ([2]; MCF-7 cells): 1 to 10 nM
- DC50 [3]: 1 to 10 nM
- ER T47D ICW Dmax (%) [3]: B (“B”: >50% and <75%)

Compound: C[C@H]1Cc2c(ccc3[nH]ncc23)[C@H](c2ccc(N3CCC4(CC3)CC(CN3CCN(c5ccc(C(=O)NC6CCC(=O)NC6=O)nc5)CC3)C4)cn2)N1CC(F)(F)F (stereo in doubt) [Compound A9, N-(2,6-dioxopiperidin-3-yl)-5-(4-((7-(6-((6R,8S)-8-methyl-7-(2,2,2-trifluoroethyl)-6,7,8,9-tetrahydro-3H-pyrazolo[4,3-f]isoquinolin-6-yl)pyridin-3-yl)-7-azaspiro[3.5]nonan-2-yl)methyl)piperazin-1-yl)picolinamide]
- IC50 [1]: 50 to 500 nM
- Dmax [2]: 50 to 75%
- DC50 ([2]; MCF-7 cells): < 1 nM
- DC50 [3]: < 1 nM
- Dmax [3]: 50 to 75%

Compound: C[C@H]1Cc2c(ccc3[nH]ncc23)[C@H](c2ccc(N3CCC4(CC3)CC(CN3CCC(c5ccc(NC6CCC(=O)NC6=O)cc5)CC3)C4)cn2)N1CC(F)(F)F (stereo in doubt) [Compound A10, 3-((4-(1-((7-(6-((6R,8S)-8-methyl-7-(2,2,2-trifluoroethyl)-6,7,8,9-tetrahydro-3H-pyrazolo[4,3-f]isoquinolin-6-yl)pyridin-3-yl)-7-azaspiro[3.5]nonan-2-yl)methyl)piperidin-4-yl)phenyl)amino)piperidine-2,6-dione]
- IC50 [1]: 50 to 500 nM
- Dmax [2]: 50 to 75%
- DC50 ([2]; MCF-7 cells): < 1 nM
- DC50 [3]: < 1 nM
- Dmax [3]: 50 to 75%

— patent publication US20260256925A1, “INDAZOLE DERIVATIVES AS ESTROGEN RECEPTOR DEGRADERS” (REGENTS OF THE UNIVERSITY OF MICHIGAN, priority 2022, published 2026)
